Patent publication US20080051387A1, “TETRAHYDROPYRIDO[3,4-D]PYRIMIDINES AND RELATED ANALOGUES” (priority 2006, published 2008)

molecular target: T1, chimeric human H3 receptor (Homo sapiens, UniProt Q9Y5N1); assay: Chimeric human H3 receptor screening GTP binding assay (inhibition of histamine-stimulated GTP-gamma35S binding, Example 8); assay type: biochemical; conditions: 1 h; assay described in Example 8; symbol "!" in column headed Ki; read-out: Ki ("!": percent inhibition of agonist-induced GTP-gammaS binding to H3)
T1 construct: rat Galpha-i2 (Gnai2, rat); made in house; host or cells: Sf9 insect cells (baculovirus); P2 membranes
Summary of the method: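 Sf9 membranes co-expressing chimeric human H3 receptor and heterotrimeric G-protein (35 μg protein) incubated 60 min at room temperature with 4 μM compound, 1 μM histamine and 125 pM GTP-gamma35S in pH 7.4 buffer with 10 μM GDP. Filter-bound radioactivity, nonspecific (10 μM GTP-gammaS) subtracted, reported as % inhibition of histamine signal.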

T1 sequence (Q9Y5N1 with tags, fused parts or gaps): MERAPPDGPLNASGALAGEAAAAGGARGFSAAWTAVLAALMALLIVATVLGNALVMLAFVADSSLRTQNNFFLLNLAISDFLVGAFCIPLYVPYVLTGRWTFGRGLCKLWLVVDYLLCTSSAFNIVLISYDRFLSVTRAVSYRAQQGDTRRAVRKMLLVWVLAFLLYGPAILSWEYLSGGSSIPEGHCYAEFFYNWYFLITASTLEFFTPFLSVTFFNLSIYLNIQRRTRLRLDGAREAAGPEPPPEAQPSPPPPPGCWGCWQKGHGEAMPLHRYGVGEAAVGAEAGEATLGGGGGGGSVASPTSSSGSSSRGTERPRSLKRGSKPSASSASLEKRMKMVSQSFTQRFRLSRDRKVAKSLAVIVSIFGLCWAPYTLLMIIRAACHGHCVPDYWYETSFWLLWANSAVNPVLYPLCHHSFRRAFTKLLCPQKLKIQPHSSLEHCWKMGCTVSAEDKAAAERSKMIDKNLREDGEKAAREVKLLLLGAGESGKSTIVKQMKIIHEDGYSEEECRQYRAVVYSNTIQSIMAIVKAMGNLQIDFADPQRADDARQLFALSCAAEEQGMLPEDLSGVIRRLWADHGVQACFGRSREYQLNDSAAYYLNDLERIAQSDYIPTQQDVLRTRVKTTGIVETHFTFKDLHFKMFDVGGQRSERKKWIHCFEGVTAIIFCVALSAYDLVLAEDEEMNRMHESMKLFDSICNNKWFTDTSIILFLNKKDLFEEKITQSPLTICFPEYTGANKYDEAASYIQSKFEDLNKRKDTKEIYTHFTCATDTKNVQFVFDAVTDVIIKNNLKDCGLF

inhibition at 4 µM [%]	SMILES
≥ 90	CSc1ncccc1C(=O)N1CCc2cnc(N3CCN(C4CCC4)CC3)nc2CC1 [Compound 501, 2-(4-cyclobutylpiperazin-1-yl)-7-{[2-(methylthio)pyridin-3-yl]carbonyl}-6,7,8,9-tetrahydro-5H-pyrimido[4,5-d]azepine]
≥ 90	CC(C)c1ccc(/C=C/C(=O)N2CCc3cnc(N4CCN(C5CCC5)CC4)nc3CC2)cc1 [Compound 559, 2-(4-cyclobutylpiperazin-1-yl)-7-[(2E)-3-(4-isopropylphenyl)prop-2-enoyl]-6,7,8,9-tetrahydro-5H-pyrimido[4,5-d]azepine]
≥ 90	CSc1ccc(CC(=O)N2CCc3cnc(N4CCN(C5CCC5)CC4)nc3CC2)cc1 [Compound 519, 2-(4-cyclobutylpiperazin-1-yl)-7-{[4-(methylthio)phenyl]acetyl}-6,7,8,9-tetrahydro-5H-pyrimido[4,5-d]azepine]
≥ 90	CCCc1c(C(=O)N2CCc3cnc(N4CCN(C5CCC5)CC4)nc3CC2)cnn1-c1ccccc1 [Compound 508, 2-(4-cyclobutylpiperazin-1-yl)-7-[(1-phenyl-5-propyl-1H-pyrazol-4-yl)carbonyl]-6,7,8,9-tetrahydro-5H-pyrimido[4,5-d]azepine]
≥ 90	CSc1sc(C(=O)N2CCc3cnc(N4CCN(C5CCC5)CC4)nc3CC2)c2c1C=CCC2 [Compound 458, 2-(4-cyclobutylpiperazin-1-yl)-7-{[3-(methylthio)-6,7-dihydro-2-benzothien-1-yl]carbonyl}-6,7,8,9-tetrahydro-5H-pyrimido[4,5-d]azepine]
≥ 90	O=C(Cc1cccc(F)c1)N1CCc2cnc(N3CCN(C4CCC4)CC3)nc2CC1 [Compound 513, 2-(4-cyclobutylpiperazin-1-yl)-7-[(3-fluorophenyl)acetyl]-6,7,8,9-tetrahydro-5H-pyrimido[4,5-d]azepine]
≥ 90	CCSc1ncccc1C(=O)N1CCc2cnc(N3CCN(C4CCC4)CC3)nc2CC1 [Compound 502, 2-(4-cyclobutylpiperazin-1-yl)-7-{[2-(ethylthio)pyridin-3-yl]carbonyl}-6,7,8,9-tetrahydro-5H-pyrimido[4,5-d]azepine]

SMILES	inhibition at 4 µM [%]
CCCCOc1ccc(C(=O)N2CCc3cnc(N4CCN(C5CCC5)CC4)nc3CC2)cc1 [Compound 382, 7-(4-butoxybenzoyl)-2-(4-cyclobutylpiperazin-1-yl)-6,7,8,9-tetrahydro-5H-pyrimido[4,5-d]azepine]	≥ 90
CCCCOc1ccccc1C(=O)N1CCc2cnc(N3CCN(C4CCC4)CC3)nc2CC1 [Compound 417, 7-(2-butoxybenzoyl)-2-(4-cyclobutylpiperazin-1-yl)-6,7,8,9-tetrahydro-5H-pyrimido[4,5-d]azepine]	≥ 90

same assay, conditions: 1 h; assay of Example 8; symbol "!" in column headed Ki; read-out: percent inhibition of agonist-induced GTP-gammaS binding to H3

inhibition at 4 µM [%]	SMILES
≥ 90	CC(C)(C)c1ccc(C(=O)N2CCc3cnc(N4CCN(C5CCC5)CC4)nc3CC2)cc1 [Compound 364, 7-(4-tert-butylbenzoyl)-2-(4-cyclobutylpiperazin-1-yl)-6,7,8,9-tetrahydro-5H-pyrimido[4,5-d]azepine]
≥ 90	Cc1c(F)cccc1CN1CCc2cnc(N3CCN(C4CCC4)CC3)nc2CC1 [Compound 264, 2-(4-cyclobutylpiperazin-1-yl)-7-(3-fluoro-2-methylbenzyl)-6,7,8,9-tetrahydro-5H-pyrimido[4,5-d]azepine]
≥ 90	CCCCCCN1CCc2cnc(N3CCN(C4CCC4)CC3)nc2CC1 [Compound 250, 2-(4-cyclobutylpiperazin-1-yl)-7-hexyl-6,7,8,9-tetrahydro-5H-pyrimido[4,5-d]azepine]
≥ 90	O=C(Cc1ccc(F)cc1Cl)N1CCc2cnc(N3CCN(C4CCC4)CC3)nc2CC1 [Compound 302, 7-[(2-chloro-4-fluorophenyl)acetyl]-2-(4-cyclobutylpiperazin-1-yl)-6,7,8,9-tetrahydro-5H-pyrimido[4,5-d]azepine]
≥ 90	CSc1ccc(C(=O)N2CCc3cnc(N4CCN(C5CCC5)CC4)nc3CC2)cc1 [Compound 369, 2-(4-cyclobutylpiperazin-1-yl)-7-[4-(methylthio)benzoyl]-6,7,8,9-tetrahydro-5H-pyrimido[4,5-d]azepine]
≥ 90	O=C(C1CCCCCC1)N1CCc2cnc(N3CCN(C4CCC4)CC3)nc2CC1 [Compound 219, 2-(4-cyclobutylpiperazin-1-yl)-7-(cycloheptylcarbonyl)-6,7,8,9-tetrahydro-5H-pyrimido[4,5-d]azepine]
≥ 90	O=C(COc1ccc(F)cc1)N1CCc2cnc(N3CCN(C4CCC4)CC3)nc2CC1 [Compound 317, 2-(4-cyclobutylpiperazin-1-yl)-7-[(4-fluorophenoxy)acetyl]-6,7,8,9-tetrahydro-5H-pyrimido[4,5-d]azepine]
≥ 90	CCC(C)CN1CCc2cnc(N3CCN(C4CCC4)CC3)nc2CC1 (stereo not shown) [Compound 252, 2-(4-cyclobutylpiperazin-1-yl)-7-(2-methylbutyl)-6,7,8,9-tetrahydro-5H-pyrimido[4,5-d]azepine]
≥ 90	O=C(c1ccc(Oc2ccccc2)cc1)N1CCc2cnc(N3CCN(C4CCC4)CC3)nc2CC1 [Compound 372, 2-(4-cyclobutylpiperazin-1-yl)-7-(4-phenoxybenzoyl)-6,7,8,9-tetrahydro-5H-pyrimido[4,5-d]azepine]
≥ 90	COCCC(=O)N1CCc2cnc(N3CCN(C4CCC4)CC3)nc2CC1 [Compound 214, 2-(4-cyclobutylpiperazin-1-yl)-7-(3-methoxypropanoyl)-6,7,8,9-tetrahydro-5H-pyrimido[4,5-d]azepine]

same assay, conditions: symbol ! in Ki; test compound 4 μM, 1 μM histamine; read-out: percent inhibition of agonist-induced GTP-gammaS binding to H3

inhibition at 4 µM [%]	SMILES
≥ 90	Fc1ccccc1CN1CCc2c(ncnc2N2CCN(C3CCC3)CC2)C1 [Compound 66, 4-(4-cyclobutylpiperazin-1-yl)-7-(2-fluorobenzyl)-5,6,7,8-tetrahydropyrido[3,4-d]pyrimidine]
≥ 90	CC(C)CC(C)N1CCc2c(ncnc2N2CCN(C3CCC3)CC2)C1 (stereo not shown) [Compound 116, 4-(4-cyclobutylpiperazin-1-yl)-7-(1,3-dimethylbutyl)-5,6,7,8-tetrahydropyrido[3,4-d]pyrimidine]
≥ 90	c1nc2c(c(N3CCN(C4CCC4)CC3)n1)CCN(CC1CC1)CC2 [Compound 169, 4-(4-cyclobutylpiperazin-1-yl)-7-(cyclopropylmethyl)-6,7,8,9-tetrahydro-5H-pyrimido[4,5-d]azepine]
≥ 90	CCn1cncc1CN1CCc2nc(N3CCN(C4CCC4)CC3)ncc2C1 [Compound 642, 2-(4-cyclobutylpiperazin-1-yl)-6-[(1-ethyl-1H-imidazol-5-yl)methyl]-5,6,7,8-tetrahydropyrido[4,3-d]pyrimidine]
≥ 90	CC(c1nccn1C)N1CCc2c(ncnc2N2CCN(C3CCC3)CC2)C1 (stereo not shown) [Compound 107, 4-(4-cyclobutylpiperazin-1-yl)-7-[1-(1-methyl-1H-imidazol-2-yl)ethyl]-5,6,7,8-tetrahydropyrido[3,4-d]pyrimidine]
≥ 90	CCCCN1CCc2ncnc(N3CCN(C4CCC4)CC3)c2CC1 [Compound 163, 7-butyl-4-(4-cyclobutylpiperazin-1-yl)-6,7,8,9-tetrahydro-5H-pyrimido[4,5-d]azepine]
≥ 90	COc1ccc(OC)c(CN2CCc3c(ncnc3N3CCN(C4CCC4)CC3)C2)c1 [Compound 95, 4-(4-cyclobutylpiperazin-1-yl)-7-(2,5-dimethoxybenzyl)-5,6,7,8-tetrahydropyrido[3,4-d]pyrimidine]
≥ 90	c1nc2c(c(N3CCN(C4CCC4)CC3)n1)CCN(Cc1ccc(N3CCOCC3)nc1)C2 [Compound 76, 4-(4-cyclobutylpiperazin-1-yl)-7-[(6-morpholin-4-ylpyridin-3-yl)methyl]-5,6,7,8-tetrahydropyrido[3,4-d]pyrimidine]
≥ 90	c1ccc2c(CN3CCc4c(ncnc4N4CCN(C5CCC5)CC4)C3)ccnc2c1 [Compound 72, 4-(4-cyclobutylpiperazin-1-yl)-7-(quinolin-4-ylmethyl)-5,6,7,8-tetrahydropyrido[3,4-d]pyrimidine]
≥ 90	CCC(C)CN1CCc2c(ncnc2N2CCN(C3CCC3)CC2)C1 (stereo not shown) [Compound 87, 4-(4-cyclobutylpiperazin-1-yl)-7-(2-methylbutyl)-5,6,7,8-tetrahydropyrido[3,4-d]pyrimidine]
≥ 90	CC(C)c1ccc(C(C)N2CCc3c(ncnc3N3CCN(C4CCC4)CC3)C2)cc1 (stereo not shown) [Compound 115, 4-(4-cyclobutylpiperazin-1-yl)-7-[1-(4-isopropylphenyl)ethyl]-5,6,7,8-tetrahydropyrido[3,4-d]pyrimidine]
≥ 90	O=C(C1CCCCC1)N1CCc2c(ncnc2N2CCN(C3CCC3)CC2)C1 [Compound 55, 4-(4-cyclobutylpiperazin-1-yl)-7-(cyclohexylcarbonyl)-5,6,7,8-tetrahydropyrido[3,4-d]pyrimidine]
≥ 90	COc1ccc(C(C)N2CCc3c(ncnc3N3CCN(C4CCC4)CC3)C2)c(OC)c1 (stereo not shown) [Compound 114, 4-(4-cyclobutylpiperazin-1-yl)-7-[1-(2,4-dimethoxyphenyl)ethyl]-5,6,7,8-tetrahydropyrido[3,4-d]pyrimidine]
≥ 90	O=C(CC1CCCCC1)N1CCc2c(ncnc2N2CCN(C3CCC3)CC2)C1 [Compound 48, 4-(4-cyclobutylpiperazin-1-yl)-7-(cyclohexylacetyl)-5,6,7,8-tetrahydropyrido[3,4-d]pyrimidine]
≥ 90	c1ccc(CN2CCc3ncnc(N4CCN(C5CCCC5)CC4)c3C2)cc1 [Compound 141, 6-benzyl-4-(4-cyclopentylpiperazin-1-yl)-5,6,7,8-tetrahydropyrido[4,3-d]pyrimidine]
